# Assay results from patent US11459586B2, “Methods for increasing efficiency of nuclease-mediated gene editing in stem cells” (President and Fellows of Harvard College, priority 2016, dated 2022).
# System: human iPSC
# Assay: mThy1 gene targeting in hiPSC lentivirally overexpressing anti-apoptotic genes (EGFP+ vs EGFP- subsets)
# Format: cell-based
# Conditions: lentiviral overexpression
# Description: FIGS. 3A-D. Overexpression of anti-apoptotic factors increases gene targeting rates in human iPSC, both for HR-mediated gene replacement and NHEJ-mediated gene excision. FIG. 3A. Mouse Thy1 gene targeting scheme. Two Crispr sgRNAs target human THY1 either within intron 1 (Left) or after the polyadenylation site (Right). The mouse Thy1 targeting vector plasmid contains mThy1 coding exons 2 and 3, flanked by hThy1 homology arms outside the sgRNA sites—coding exon 1 (which encodes the signal peptide) is retained but the sgRNA sites are disrupted. FIG. 3B. Plain human iPSC were infected with lentivirus that constitutively expresses EGFP together with an anti-apoptotic gene separated by an IRES. Three days after infection, each culture was nucleofected with plasmids encoding the mThy1 targeting vector, Cas9 nuclease, and Thy1 Left, Right, both, or no sgRNAs (pUC19). Five days later, cells were analyzed by flow cytometry. FIG. 3C. Representative FACS plots gated on live single cells: iPSC from each transfected culture were gated based on EGFP expression and the percentage of cells within those subsets that have gained mThy1 expression and/or lost hThy1 expression are indicated. […]
# Subsequently, we determined whether rescue by these anti-apoptotic genes would result in higher gene editing frequencies in hiPSC. […]
substance,measurement,setting,value
"Bcl-2: B cell lymphoma 2 protein, anti-apoptotic, overexpressed from lentivirus or Cas9 plasmid",frequency of NHEJ-mediated hThy1 homozygous gene deletions,both Thy1 sgRNAs,increased
same,frequency of HR-mediated mThy1 homozygous gene replacements,one sgRNA,dramatic increase
